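Five concentrations, 48 hours, 96-well plates. The concentration for 50% growth inhibition is given as GI50.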 Active and inactive are the calls of the source. Rule as the data show it: active = GI50 up to about 1.1 µM and inactive = higher.
Tests used:
Test in all cases: inhibition of tumour cell growth, NCI panel, 48 h
RPMI-8226 = test system: RPMI-8226
SK-MEL-5 = test system: SK-MEL-5
A498 = test system: A498
OVCAR-5 = test system: OVCAR-5
Malme-3M = test system: Malme-3M
SF-268 = test system: SF-268
U-251 = test system: U-251
HCT-15 = test system: HCT-15
SR = test system: SR
DMS-273 = test system: DMS-273
IGROV-1 = test system: IGROV-1
UACC-257 = test system: UACC-257
HL-60 = test system: HL-60
M14 = test system: M14
Hs-578T = test system: Hs-578T
MDA-MB-231 = test system: MDA-MB-231
PC-3 = test system: PC-3
MCF7 = test system: MCF7
BT-549 = test system: BT-549
DU-145 = test system: DU-145

| SMILES | GI50 (RPMI-8226) | GI50 (SK-MEL-5) | GI50 (A498) | GI50 (OVCAR-5) | GI50 (Malme-3M) | GI50 (SF-268) | GI50 (U-251) | GI50 (HCT-15) [µM] | GI50 (SR) | GI50 (DMS-273) | GI50 (IGROV-1) | GI50 (UACC-257) | GI50 (HL-60) | GI50 (M14) | GI50 (Hs-578T) | GI50 (MDA-MB-231) | GI50 (PC-3) | GI50 (MCF7) | GI50 (BT-549) | GI50 (DU-145) |
| --- | --- | --- | --- | --- | --- | --- | --- | --- | --- | --- | --- | --- | --- | --- | --- | --- | --- | --- | --- | --- |
| COc1ccc(C(=O)NCCC2=CCCCC2)cc1 | > 100 µM (inactive) | > 100 µM (inactive) | 85.7 µM (inactive) | > 100 µM (inactive) | > 100 µM (inactive) | > 100 µM (inactive) | > 100 µM (inactive) | > 100 | > 100 µM (inactive) | > 100 µM (inactive) | > 100 µM (inactive) | > 100 µM (inactive) | – | – | – | – | – | – | – | – |
| CCn1cnc2c(=S)nc(N)[nH]c21 | > 100 µM (inactive) | – | – | – | > 100 µM (inactive) | > 100 µM (inactive) | > 100 µM (inactive) | > 100 | > 100 µM (inactive) | > 100 µM (inactive) | > 100 µM (inactive) | > 100 µM (inactive) | > 100 µM (inactive) | > 100 µM (inactive) | – | – | – | – | – | – |
| CN(C)CCNC(=O)c1cccc2c1nc(-c1ccccn1)c1ccccc12 | – | 15.2 µM (inactive) | 13.6 µM (inactive) | 14.8 µM (inactive) | – | 23.3 µM (inactive) | 16.3 µM (inactive) | 13.8 | – | 13.5 µM (inactive) | 16.1 µM (inactive) | 16.7 µM (inactive) | 16.4 µM (inactive) | 15.8 µM (inactive) | – | – | – | – | – | – |
| CN(C)NC1=C([N+](=O)[O-])C=NN(c2ccccc2)C1 | – | 2.56 µM (inactive) | 20.9 µM (inactive) | 1.67 µM (inactive) | 1.96 µM (inactive) | 1.85 µM (inactive) | 1.76 µM (inactive) | 1.55 | 0.811 µM (active) | 1.75 µM (inactive) | 2.19 µM (inactive) | 1.74 µM (inactive) | 2.04 µM (inactive) | 1.82 µM (inactive) | – | – | – | – | – | – |
| O=C(c1nc2ccc(Cl)cc2[nH]c1=O)C(O)c1ccco1 (stereo not given) | – | 25.5 µM (inactive) | – | > 100 µM (inactive) | > 100 µM (inactive) | 98.9 µM (inactive) | – | 15.5 | – | 35.5 µM (inactive) | 45.9 µM (inactive) | > 100 µM (inactive) | 6.14 µM (inactive) | 29.4 µM (inactive) | – | – | – | – | – | – |
| O=C(Nc1ccc(Br)cc1)C(=O)C(C(=O)c1ccccc1F)C1OC(=O)c2ccccc21 (stereo not given) | 17.8 µM (inactive) | 27.2 µM (inactive) | 40.1 µM (inactive) | 48 µM (inactive) | 15.3 µM (inactive) | 24.9 µM (inactive) | 19.3 µM (inactive) | 28.8 | – | 31 µM (inactive) | 31.4 µM (inactive) | 24.8 µM (inactive) | 23.7 µM (inactive) | 16.5 µM (inactive) | – | – | – | – | – | – |
| CC12N=NN(c3ccc([N+](=O)[O-])cc3)C1(O)c1ccccc1C2=O (stereo not given) | > 100 µM (inactive) | > 100 µM (inactive) | – | – | > 100 µM (inactive) | > 100 µM (inactive) | > 100 µM (inactive) | > 100 | > 100 µM (inactive) | > 100 µM (inactive) | > 100 µM (inactive) | > 100 µM (inactive) | > 100 µM (inactive) | > 100 µM (inactive) | – | – | – | – | – | – |
| CN(C)c1ccc2c(c1)C(=O)N(OS(=O)(=O)c1ccc([N+](=O)[O-])cc1)C2=O | – | 41.1 µM (inactive) | 59.7 µM (inactive) | 25.4 µM (inactive) | 31.2 µM (inactive) | 27.2 µM (inactive) | 18.9 µM (inactive) | 33.2 | 22.4 µM (inactive) | 19.9 µM (inactive) | 19.7 µM (inactive) | 25.6 µM (inactive) | 28.6 µM (inactive) | 17.4 µM (inactive) | – | – | – | – | – | – |
| CC1CC(C)C(=O)C(C(=O)CC2CC(=O)NC2=O)C1 (stereo not given) | > 100 µM (inactive) | – | > 100 µM (inactive) | > 100 µM (inactive) | > 100 µM (inactive) | > 100 µM (inactive) | > 100 µM (inactive) | – | > 100 µM (inactive) | > 100 µM (inactive) | > 100 µM (inactive) | > 100 µM (inactive) | > 100 µM (inactive) | > 100 µM (inactive) | – | – | – | – | – | – |
| Cc1cc(NS(=O)(=O)c2ccc(Nc3c4ccccc4nc4c(C(=O)Nc5ccc(S(=O)(=O)N=C(N)N)cc5)ccc(Cl)c34)cc2)no1 | 29.8 µM (inactive) | > 100 µM (inactive) | 44.6 µM (inactive) | > 100 µM (inactive) | 46.7 µM (inactive) | 23.8 µM (inactive) | 28.6 µM (inactive) | – | 25.2 µM (inactive) | 40.6 µM (inactive) | – | > 100 µM (inactive) | 22.2 µM (inactive) | > 100 µM (inactive) | – | – | – | – | – | – |
| O=C(O)CSc1nnc(-c2ccco2)[nH]1 | > 100 µM (inactive) | > 100 µM (inactive) | > 100 µM (inactive) | > 100 µM (inactive) | > 100 µM (inactive) | – | > 100 µM (inactive) | – | – | > 100 µM (inactive) | > 100 µM (inactive) | > 100 µM (inactive) | > 100 µM (inactive) | > 100 µM (inactive) | – | – | – | – | – | – |
| Cc1cc(O)c(C(C)C)cc1/N=C/c1ccccc1O | 0.278 µM (active) | 6.08 µM (inactive) | 23.6 µM (inactive) | 20.6 µM (inactive) | 14.7 µM (inactive) | 6.21 µM (inactive) | 3.55 µM (inactive) | 3.97 | 1.15 µM (inactive) | – | 8.43 µM (inactive) | 9.35 µM (inactive) | 0.303 µM (active) | 15.4 µM (inactive) | 8.73 µM (inactive) | 1.73 µM (inactive) | 5.08 µM (inactive) | 7.26 µM (inactive) | 8.3 µM (inactive) | 5.53 µM (inactive) |
| COc1cccc(-c2cc(O)c3cc(OC)ccc3n2)c1 | 0.34 µM (active) | 0.182 µM (active) | 0.0158 µM (active) | 0.452 µM (active) | 0.0553 µM (active) | 0.71 µM (active) | 0.305 µM (active) | 0.366 | 0.0815 µM (active) | – | 0.483 µM (active) | 0.865 µM (active) | 0.0791 µM (active) | 0.235 µM (active) | 0.24 µM (active) | 0.368 µM (active) | 0.338 µM (active) | 0.364 µM (active) | 0.392 µM (active) | 0.429 µM (active) |
| CCCCCCCCCCC(O)C1CCC(C2CCC(C(O)CCCCC(O)CCCCCC(O)CC3=CC(C)OC3=O)O2)O1 (stereo not given) | > 16.4 µM (inactive) | 0.258 µM (active) | > 25 µM (inactive) | > 25 µM (inactive) | > 25 µM (inactive) | 4 µM (inactive) | > 25 µM (inactive) | > 25 | 0.0218 µM (active) | – | 3.72 µM (inactive) | 2.12 µM (inactive) | 2.36 µM (inactive) | > 25 µM (inactive) | 4.75 µM (inactive) | > 25 µM (inactive) | > 25 µM (inactive) | 1.18 µM (inactive) | > 25 µM (inactive) | 9.91 µM (inactive) |
| COc1ccc2[nH]c3cc4c(=O)c5cc(OC)ccc5[nH]c4cc3c(=O)c2c1 | > 100 µM (inactive) | > 100 µM (inactive) | > 100 µM (inactive) | > 100 µM (inactive) | > 100 µM (inactive) | > 100 µM (inactive) | > 100 µM (inactive) | > 100 | > 100 µM (inactive) | – | > 100 µM (inactive) | > 100 µM (inactive) | 10.8 µM (inactive) | > 100 µM (inactive) | > 100 µM (inactive) | > 100 µM (inactive) | > 100 µM (inactive) | > 100 µM (inactive) | > 100 µM (inactive) | > 100 µM (inactive) |
| [O-][S+]1CSCS1 (stereo not given) | – | > 100 µM (inactive) | > 100 µM (inactive) | > 100 µM (inactive) | > 100 µM (inactive) | > 100 µM (inactive) | > 100 µM (inactive) | – | > 100 µM (inactive) | > 100 µM (inactive) | > 100 µM (inactive) | > 100 µM (inactive) | > 100 µM (inactive) | > 100 µM (inactive) | – | – | – | – | – | – |
| Cc1ccc2c(c1)-c1c(C#N)c(N)nc(-c3ccccc3)c1CCS2(=O)=O | 4.56 µM (inactive) | 3.03 µM (inactive) | 8.71 µM (inactive) | 10.1 µM (inactive) | 2.45 µM (inactive) | 22.9 µM (inactive) | 8.22 µM (inactive) | 4.54 | 0.834 µM (active) | – | 5.31 µM (inactive) | 6.31 µM (inactive) | 0.204 µM (active) | 4.54 µM (inactive) | 5.98 µM (inactive) | 17.5 µM (inactive) | 13.4 µM (inactive) | 4.48 µM (inactive) | 12.1 µM (inactive) | 6.19 µM (inactive) |
| N=C(N)NS(=O)(=O)c1ccc(N/N=C2/CCOC2=O)cc1 | > 100 µM (inactive) | > 100 µM (inactive) | > 100 µM (inactive) | > 100 µM (inactive) | > 100 µM (inactive) | 45.1 µM (inactive) | 41.2 µM (inactive) | > 100 | 70.6 µM (inactive) | – | > 100 µM (inactive) | > 100 µM (inactive) | > 100 µM (inactive) | > 100 µM (inactive) | 57.8 µM (inactive) | > 100 µM (inactive) | 80.4 µM (inactive) | > 100 µM (inactive) | > 100 µM (inactive) | > 100 µM (inactive) |
| CCOC(=O)C1=C(C)N(Cc2ccccc2)C2(O)C(OC)CC(=O)C3C(=O)N(c4ccccc4)C(=O)C132 (stereo not given) | 2.69 µM (inactive) | 10.3 µM (inactive) | 21.5 µM (inactive) | 13.8 µM (inactive) | 14.5 µM (inactive) | 9.33 µM (inactive) | 6.53 µM (inactive) | 5.75 | 3.55 µM (inactive) | – | 15.7 µM (inactive) | 15.5 µM (inactive) | 3.93 µM (inactive) | 19.9 µM (inactive) | 83.4 µM (inactive) | 13.5 µM (inactive) | 7.73 µM (inactive) | 3.61 µM (inactive) | 4.97 µM (inactive) | 3.9 µM (inactive) |

From ChEMBL document CHEMBL1201862, “PubChem BioAssay data set” (2004)
